US11111247B2, “Pyrazolopyrimidine compounds and uses thereof” (Incyte Corporation, priority 2018, dated 2021)
Read-outs that look alike come from different tables or passages of the source.

Columns and labels:
[1] = biological target: FGFR1 (Homo sapiens, UniProt P11362); experiment: pFGFR1 Functional Cell HTRF Assay (BAF3-TEL-FGFR1 cells); assay type: cell-based
Procedure: (§1) To measure phosphorylated Fibroblast Growth Factor Receptor 1 and 3 (FGF1 and FGFR3), in house stable cell lines BAF3-TEL-FGFR1 or BAF3-TEL-FGFR3 were maintained in RPMI with 10% FBS and 1 μg/ml puromycin (Gibco/Life Technologies). […] The plates were gently shaken (100 rpm) for 2 minutes at room temperature to mix well and incubated for 2 hours in a single layer at 37° C., 5% CO2. 4 μl/well of 1/25 dilution of lysis buffer #3 (Cis Bio) was added with standard Protease inhibitors and shaken at 200 rpm at room temperature for 20 minutes. 4 μl total of the Cis Bio Tb-pFGFR Ab (10 ng) and d2-FGFR3 (1 ng) together were added to the lysate and mixed well. Plates were sealed and incubated at room temperature overnight in the dark. […] IC50 determination was performed by fitting the curve of inhibitor percent inhibition versus the log of the inhibitor concentration using the GraphPad Prism 5.0 software.

[2] = biological target: FGFR3 (Homo sapiens, UniProt P22607); experiment: pFGFR3 Functional Cell HTRF Assay (BAF3-TEL-FGFR3 cells); assay type: cell-based; details: 2 hours
Procedure: as §1

[3] = test system: RT112 cells; experiment: Luminescent Viability Assay (LVA, FGFR3); assay type: cell-based; details: Homo sapiens, RT-112, 72 h, 3 days, CellTiter-Glo
Outline: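 RT112 bladder cells grown in RPMI with 10% FBS were exposed to a compound concentration range for 3 days. Viability read by CellTiter-Glo luminescence; IC50 fitted from percent inhibition versus log concentration.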

[4] = biological target: FGFR2 (P) (Homo sapiens (Human), UniProt P21802); experiment: FGFR Enzymatic Assay, FGFR2 phosphorylated; details: read-out: FGFR2 (P) IC50; phosphorylated enzyme, ATP near or below Km
Procedure: (§2) The inhibitor potency of the exemplified compounds was determined in an enzyme discontinuous assay that measures peptide phosphorylation using FRET measurements to detect product formation. Inhibitors were serially diluted in DMSO and a volume of 0.2 μL was transferred to the wells of a 384-well plate. For the isoforms of FGFR (−1, −2, −3 wild-type and mutant isoforms, −4) including phosphorylated (P) and un-phosphorylated (UP) proteins, a 5 μL/well volume of enzyme diluted in assay buffer (50 mM HEPES, 10 mM MgCl2, 1 mM EGTA, 0.01% Tween-20, 5 mM DTT, pH 7.5) was added to the plate and pre-incubated with inhibitor for 5 to 15 minutes at ambient temperature. Appropriate controls (enzyme blank and enzyme with no inhibitor) were included on the plate. The reaction was initiated by the addition of a 5 μL/well volume containing both biotinylated [sequence] […] The plate was allowed to equilibrate for −10 minutes at ambient temperature before scanning on a PheraStar plate reader (BMG Labtech) instrument.
(§3) Either GraphPad prism or XLfit was used to analyze the data. The IC50 values were derived by fitting the data to a four parameter logistic equation producing a sigmoidal dose-response curve with a variable Hill coefficient. Prism equation: Y=Bottom+(Top−Bottom)/(1+10^((LogIC50−X)*Hill slope)); XLfit equation: Y=(A+((B−A)/(1+((X/C)^D)))) where X is the logarithm of inhibitor concentration and Y is the response.

[5] = biological target: FGFR3 (UP) (Homo sapiens (Human), UniProt P22607); experiment: FGFR Enzymatic Assay, FGFR3 un-phosphorylated; details: read-out: FGFR3 (UP) IC50; un-phosphorylated enzyme, ATP near or below Km
[6] = biological target: FGFR1 (UP) (Homo sapiens (Human), UniProt P11362); experiment: FGFR Enzymatic Assay, FGFR1 un-phosphorylated
Procedure: as §2, §3

[7] = test system: ALK2 mutant DIPG cell; details: ALK2 mutant DIPG cells; cited from earlier work
[8] = biological target: ALK2 (aa 147-end) (Homo sapiens (Human), UniProt Q04771); experiment: ALK2 HTRF Assay; assay type: biochemical
[9] = biological target: FGFR2 (Homo sapiens, UniProt P21802); experiment: pFGFR2 Functional Cell HTRF Assay (KATOIII cells); assay type: cell-based
Procedure: To measure phosphorylated Fibroblast Growth Factor Receptor 2 (FGFR2), KATOIII cells (Human Gastric Carcinoma) were purchased from ATCC and maintained in Iscove's with 20% FBS (Gibco/Life Technologies). For the pFGFR2 assay, KATOIII cells were plated overnight in 5% FBS and Iscove's medium at 5×10^4 cells/well into Corning 96-well flat-bottom tissue culture treated plates. The next morning, 50 μl of fresh media with 0.5% FBS was incubated in the presence or absence of a concentration range of test compounds also at 50 μl, for 1 hour at 37° C., 5% CO2. Cell were washed with PBS, and lysed with Cell Signaling Lysis Buffer with standard Protease inhibitors for 45 min at room temperature. 4 μl total of Cis Bio Anti […] together were added to the lysate and mixed well (following directions of the kit). 16 μl was then transferred to 384 well Greiner white plates and stored at 4° C. overnight in the dark. Plates were read on the Pherastar plate reader at 665 nm and 620 nm wavelengths. IC50 determination was performed by fitting the curve of inhibitor percent inhibition versus the log of the inhibitor concentration using the GraphPad Prism 5.0 software. […] NT=Not tested.

[10] = biological target: FGFR2 (UP) (Homo sapiens (Human), UniProt P21802); experiment: FGFR Enzymatic Assay, FGFR2 un-phosphorylated; details: read-out: FGFR2 (UP) IC50; un-phosphorylated enzyme, ATP near or below Km
Procedure: as §2, §3

[11] = 1 hour, read-out: FGFR2 HTRF IC50
[12] = read-out: FGFR1 (UP) IC50, un-phosphorylated enzyme, ATP near or below Km
[13] = BAF3-TEL-FGFR1 cells, 2 hours, read-out: FGFR1 HTRF IC50
[14] = read-out: ALK2 100 μM IC50, 100 uM ATP

Sequence of FGFR3 (P22607 23-806 limits assumed): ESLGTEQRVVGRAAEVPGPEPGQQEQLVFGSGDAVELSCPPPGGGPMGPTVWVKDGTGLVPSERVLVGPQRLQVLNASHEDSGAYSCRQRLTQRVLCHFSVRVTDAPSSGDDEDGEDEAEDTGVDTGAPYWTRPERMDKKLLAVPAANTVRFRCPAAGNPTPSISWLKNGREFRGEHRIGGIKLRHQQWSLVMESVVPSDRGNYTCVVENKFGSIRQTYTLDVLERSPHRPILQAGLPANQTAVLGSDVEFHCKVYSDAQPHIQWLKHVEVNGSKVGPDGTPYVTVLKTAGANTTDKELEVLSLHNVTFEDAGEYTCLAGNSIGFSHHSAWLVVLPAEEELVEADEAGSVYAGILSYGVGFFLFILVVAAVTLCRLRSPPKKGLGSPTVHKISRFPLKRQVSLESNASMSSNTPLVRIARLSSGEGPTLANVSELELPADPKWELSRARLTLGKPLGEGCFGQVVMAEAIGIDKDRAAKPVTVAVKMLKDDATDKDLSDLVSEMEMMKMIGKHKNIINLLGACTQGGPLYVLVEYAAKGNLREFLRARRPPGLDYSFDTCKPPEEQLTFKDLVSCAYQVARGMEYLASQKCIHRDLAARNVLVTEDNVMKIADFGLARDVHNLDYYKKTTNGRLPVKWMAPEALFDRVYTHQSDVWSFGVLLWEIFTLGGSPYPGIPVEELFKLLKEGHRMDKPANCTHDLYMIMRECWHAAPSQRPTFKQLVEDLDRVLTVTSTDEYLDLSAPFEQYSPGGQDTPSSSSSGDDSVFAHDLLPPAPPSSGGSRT
Sequence of FGFR3 (UP) (P22607 23-806): as the sequence (P22607 23-806 limits assumed) above
Sequence of FGFR1 (UP) (P11362 22-822): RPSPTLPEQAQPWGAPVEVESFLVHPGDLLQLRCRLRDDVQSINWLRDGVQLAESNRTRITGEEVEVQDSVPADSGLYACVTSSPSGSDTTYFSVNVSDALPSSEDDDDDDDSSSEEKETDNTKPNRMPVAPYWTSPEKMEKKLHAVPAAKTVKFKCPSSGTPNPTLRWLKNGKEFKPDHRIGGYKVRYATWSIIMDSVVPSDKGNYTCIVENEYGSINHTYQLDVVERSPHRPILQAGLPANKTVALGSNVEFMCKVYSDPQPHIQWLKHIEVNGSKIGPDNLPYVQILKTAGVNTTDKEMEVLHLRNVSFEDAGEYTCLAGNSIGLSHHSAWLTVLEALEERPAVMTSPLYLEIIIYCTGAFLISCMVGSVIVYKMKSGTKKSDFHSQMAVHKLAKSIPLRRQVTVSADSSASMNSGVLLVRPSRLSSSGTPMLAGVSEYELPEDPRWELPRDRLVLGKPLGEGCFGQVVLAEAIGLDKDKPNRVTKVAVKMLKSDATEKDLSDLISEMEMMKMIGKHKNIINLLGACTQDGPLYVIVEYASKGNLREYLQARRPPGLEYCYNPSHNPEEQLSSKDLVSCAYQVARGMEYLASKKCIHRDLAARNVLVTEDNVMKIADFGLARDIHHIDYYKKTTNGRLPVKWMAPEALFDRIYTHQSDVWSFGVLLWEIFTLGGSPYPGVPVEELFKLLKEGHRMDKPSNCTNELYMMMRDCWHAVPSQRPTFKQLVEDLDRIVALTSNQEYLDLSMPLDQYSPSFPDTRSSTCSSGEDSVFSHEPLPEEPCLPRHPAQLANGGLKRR
Sequence of FGFR1 (P11362 22-822 limits assumed): as the sequence (P11362 22-822) above
Sequence of FGFR2 (UP) (P21802 22-821): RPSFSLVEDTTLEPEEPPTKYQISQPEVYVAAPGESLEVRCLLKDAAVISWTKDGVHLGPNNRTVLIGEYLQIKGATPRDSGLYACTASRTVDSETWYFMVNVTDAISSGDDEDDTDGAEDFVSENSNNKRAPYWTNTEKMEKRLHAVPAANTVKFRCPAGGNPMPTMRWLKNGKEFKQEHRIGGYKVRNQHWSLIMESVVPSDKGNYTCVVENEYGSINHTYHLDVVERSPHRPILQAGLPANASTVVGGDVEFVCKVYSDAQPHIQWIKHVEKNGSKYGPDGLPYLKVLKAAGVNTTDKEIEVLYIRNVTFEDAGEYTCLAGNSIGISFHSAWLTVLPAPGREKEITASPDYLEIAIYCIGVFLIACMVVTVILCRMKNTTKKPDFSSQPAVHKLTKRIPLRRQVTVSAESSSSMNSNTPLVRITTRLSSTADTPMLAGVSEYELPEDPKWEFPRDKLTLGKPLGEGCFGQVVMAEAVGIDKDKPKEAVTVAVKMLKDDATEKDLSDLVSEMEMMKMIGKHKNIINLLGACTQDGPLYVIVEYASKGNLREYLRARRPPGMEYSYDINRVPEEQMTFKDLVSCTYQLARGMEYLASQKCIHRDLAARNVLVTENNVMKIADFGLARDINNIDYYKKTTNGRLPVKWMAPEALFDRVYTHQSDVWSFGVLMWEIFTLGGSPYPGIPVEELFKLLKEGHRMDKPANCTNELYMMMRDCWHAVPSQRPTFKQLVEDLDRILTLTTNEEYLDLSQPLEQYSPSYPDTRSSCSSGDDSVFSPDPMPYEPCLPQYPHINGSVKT
Sequence of FGFR2 (P) (P21802 22-821): as above
Sequence of FGFR2 (P21802 22-821 limits assumed): as the sequence (P21802 22-821) above
Sequence of ALK2 (aa 147-end) (Q04771 147-509): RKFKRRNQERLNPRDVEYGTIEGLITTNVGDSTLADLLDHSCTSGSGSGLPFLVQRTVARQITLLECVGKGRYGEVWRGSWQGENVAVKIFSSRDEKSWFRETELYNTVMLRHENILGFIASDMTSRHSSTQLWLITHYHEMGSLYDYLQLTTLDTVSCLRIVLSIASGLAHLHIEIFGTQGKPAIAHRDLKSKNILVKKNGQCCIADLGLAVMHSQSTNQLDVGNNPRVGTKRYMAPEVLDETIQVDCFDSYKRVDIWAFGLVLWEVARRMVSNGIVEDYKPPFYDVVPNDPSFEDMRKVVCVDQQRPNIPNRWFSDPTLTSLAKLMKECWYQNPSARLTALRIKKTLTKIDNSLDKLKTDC

Row | SMILES | IC50 [1] [nM] | IC50 [2] [nM] | IC50 [3] [nM] | IC50 [4] [nM] | IC50 [5] [nM] | IC50 [6] [nM] | inhibition of ALK2 mutant DIPG cell viability [7] | IC50 ([8]; ALK2 3 μM IC50, 3 uM ATP) [nM] | IC50 ([8]; ALK2 100 μM IC50, 100 uM ATP) [nM] | IC50 [9, 11] [nM] | IC50 [6, 12] [nM] | IC50 [1, 13] [nM] | IC50 [10] [nM] | IC50 ([9]; read-out: FGFR2 HTRF IC50, 1 hour) [nM] | IC50 [8, 14] [nM]
1 | CCN1CC2CCC(C1=O)N2c1ncc2[nH]nc(-c3cnn(C)c3)c2n1 (centres unmarked) [Example 50, 3-Ethyl-8-(3-(1-methyl-1H-pyrazol-4-yl)-1H-pyrazolo[4,3-d]pyrimidin-5-yl)-3,8-diazabicyclo[3.2.1]octan-2-one] | 100 to 500 | 100 to 500 | 100 to 500 | < 100 | < 100 | 100 to 500 | – | – | – | – | – | – | – | – | –
2 | c1ccc2c(-c3cnn4cc(-c5ccc(N6CCNCC6)cc5)cnc34)ccnc2c1 [LDN-19318917] | – | – | – | – | – | – | significant inhibition | – | – | – | – | – | – | – | –
3 | Cc1cc(-n2cc(-c3n[nH]c4cnc(N5C6CCC5C(=O)N(C)C6)nc34)cn2)ccn1 (centres unmarked) [Example 71, 3-Methyl-8-(3-(1-(2-methylpyridin-4-yl)-1H-pyrazol-4-yl)-1H-pyrazolo[4,3-d]pyrimidin-5-yl)-3,8-diazabicyclo[3.2.1]octan-2-one] | – | < 100 | < 100 | < 100 | < 100 | – | – | 500 to 2000 | 500 to 2000 | < 100 | < 100 | – | – | – | –
4 | Cn1cc(-c2n[nH]c3cnc(N4C5CCC4c4cn[nH]c4C5)nc23)cn1 (centres unmarked) [Example 45, 9-(3-(1-Methyl-1H-pyrazol-4-yl)-1H-pyrazolo[4,3-d]pyrimidin-5-yl)-1,4,5,6,7,8-hexahydro-4,7-epiminocyclohepta[c]pyrazole] | – | 100 to 500 | 100 to 500 | < 100 | < 100 | – | – | 500 to 2000 | 500 to 2000 | – | < 100 | 500 to 2000 | < 100 | – | –
5 | CNC(=O)c1ccc(-n2cc(-c3n[nH]c4cnc(N5C6CCC5C(=O)N(C)C6)nc34)cn2)cc1F (centres unmarked) [Example 81, 2-Fluoro-N-methyl-4-(4-(5-(3-methyl-2-oxo-3,8-diazabicyclo[3.2.1]octan-8-yl)-1H-pyrazolo[4,3-d]pyrimidin-3-yl)-1H-pyrazol-1-yl)benzamide] | – | < 100 | < 100 | < 100 | < 100 | – | – | 500 to 2000 | 500 to 2000 | < 100 | < 100 | – | – | – | –
6 | CN1CC2CCC(C1=O)N2c1ncc2[nH]nc(-c3cnn(C4CCC4)c3)c2n1 (single isomer, unassigned) [Example 64, 8-(3-(1-Cyclobutyl-1H-pyrazol-4-yl)-1H-pyrazolo[4,3-d]pyrimidin-5-yl)-3-methyl-3,8-diazabicyclo[3.2.1]octan-2-one] | – | – | – | < 100 | – | – | – | 100 to 500 | 500 to 2000 | < 100 | – | – | < 100 | – | –
7 | CN1CC2CCC(C1=O)N2c1ncc2[nH]nc(-c3cnn(C4CC4)c3)c2n1 (single isomer, unassigned) [Example 66, 8-(3-(1-Cyclopropyl-1H-pyrazol-4-yl)-1H-pyrazolo[4,3-d]pyrimidin-5-yl)-3-methyl-3,8-diazabicyclo[3.2.1]octan-2-one] | – | – | – | – | – | – | – | – | – | – | – | – | – | < 100 | –
8 | CN1CC2CCC(C1=O)N2c1ncc2[nH]nc(-c3cnn(-c4ccc(C#N)cc4)c3)c2n1 (centres unmarked) [Example 70, 4-(4-(5-(3-Methyl-2-oxo-3,8-diazabicyclo[3.2.1]octan-8-yl)-1H-pyrazolo[4,3-d]pyrimidin-3-yl)-1H-pyrazol-1-yl)benzonitrile] | – | < 100 | < 100 | < 100 | < 100 | – | – | 500 to 2000 | – | < 100 | < 100 | – | < 100 | – | > 2000
9 | CN1CC2CCC(C1=O)N2c1ncc2[nH]nc(-c3cnn(-c4ccc(N(C)C)nc4)c3)c2n1 (centres unmarked) [Example 72, 8-(3-(1-(6-(Dimethylamino)pyridin-3-yl)-1H-pyrazol-4-yl)-1H-pyrazolo[4,3-d]pyrimidin-5-yl)-3-methyl-3,8-diazabicyclo[3.2.1]octan-2-one] | – | < 100 | 100 to 500 | < 100 | < 100 | – | – | 500 to 2000 | 500 to 2000 | < 100 | < 100 | – | < 100 | – | –
10 | CN1CC2CCC(C1=O)N2c1ncc2[nH]nc(-c3cnn(-c4ccncc4)c3)c2n1 (centres unmarked) [Example 68, 3-Methyl-8-(3-(1-(pyridin-4-yl)-1H-pyrazol-4-yl)-1H-pyrazolo[4,3-d]pyrimidin-5-yl)-3,8-diazabicyclo[3.2.1]octan-2-one] | – | < 100 | 100 to 500 | < 100 | < 100 | – | – | 500 to 2000 | – | < 100 | < 100 | – | < 100 | – | > 2000
11 | CC(C)N1CC2CCC(C1=O)N2c1ncc2[nH]nc(-c3cnn(C)c3)c2n1 (centres unmarked) [Example 52, 3-Isopropyl-8-(3-(1-methyl-1H-pyrazol-4-yl)-1H-pyrazolo[4,3-d]pyrimidin-5-yl)-3,8-diazabicyclo[3.2.1]octan-2-one] | 100 to 500 | 100 to 500 | 100 to 500 | < 100 | < 100 | 100 to 500 | – | – | – | – | – | – | – | – | –
12 | CN1CC2CCC(C1=O)N2c1ncc2[nH]nc(-c3cnn(C)c3)c2n1 (centres unmarked) [Example 49, 3-Methyl-8-(3-(1-methyl-1H-pyrazol-4-yl)-1H-pyrazolo[4,3-d]pyrimidin-5-yl)-3,8-diazabicyclo[3.2.1]octan-2-one] | – | < 100 | 100 to 500 | < 100 | < 100 | – | – | 500 to 2000 | – | – | < 100 | 500 to 2000 | < 100 | – | > 2000
13 | Cc1cc(-n2cc(-c3n[nH]c4cnc(N5C6CCC5C(=O)N(C)C6)nc34)cn2)ccc1C#N (centres unmarked) [Example 76, 2-Methyl-4-(4-(5-(3-methyl-2-oxo-3,8-diazabicyclo[3.2.1]octan-8-yl)-1H-pyrazolo[4,3-d]pyrimidin-3-yl)-1H-pyrazol-1-yl)benzonitrile] | – | < 100 | < 100 | < 100 | < 100 | – | – | 500 to 2000 | 500 to 2000 | < 100 | < 100 | – | < 100 | – | –
